# In US20220119446A1, “BIOMARKERS AND TREATMENT OF NEURONAL INJURY AND NEURODEGENERATION” (Board of Supervisons of Louisiana State University and …, priority 2018, published 2022):
# “Also recorded” adds a separate entry of the source.
# Experiments:
# Format in all cases: cell-based, human
# COX-2 promoter = COX-2 promoter luciferase reporter assay; details: ARPE-19 cells; 50 ng/ml Wnt5a or 20 ng/ml IL1-β
# Text: (§1) Except TOP/FOP flash, the Luciferase activity can be standardized using a construct expressing GFP constitutively under CMV virus promoter. To assess luciferase activity, cell lysates can be obtained using Passive Lysis Buffer (Promega, Madison, Wis.) and mixed with a luciferase assay reagent (Promegam Madison, Wis.). Chemiluminescence produced by luciferase and fluorescence from GFP can be detected using Appliscan 2.3. Data can be analyzed using SkanIt 2.3 (Thermo Fisher Scientific, Waltham, Mass.).
# A, Design of luciferase reporter assay performed with COX-2 promoter construct. UOS was induced by the addition of 10 ng/ml TNFα and 600 μM H2O2 in ARPE-19 cells. The concentrations of Wnt5a used was 50 ng/ml. Cells were co-transfected with the constructs driving the expression of luciferase and a plasmid that constitutively expressed green fluorescent protein for standardization. Luciferase activity is denoted in luciferase activity units (LUC) and standardized using GFP fluorescent (GFP). B, Wnt5a and IL-1β effect time course on COX-2 promoter activity. […] Luciferase activity (LUC) was measured in ARPE-19 cells in the presence of 50 ng/ml Wnt5a or 20 ng/ml IL1-β. […] Luciferase activity measured in cells incubated with 50 ng/ml Wnt5a in the presence or absence of 100 nM (+) and 200 nM (++) NPD1.
# ARPE-19 cells and hpRPE = assay: Apoptosis by Hoechst staining in RPE cells under UOS
# Method: ARPE-19 cells, can be plated and grown in DMEM/F-12 containing 10% FBS and 1× penicillin/streptomycin at 37° C., 5% CO2, 99% relative humidity for 24 h. […] 15-LOX-1 deficient cells can be maintained in the same medium as ARPE-19 with the addition of 500 μg/mL Geneticin (Life Technologies Corporation, Carlsbad, Calif.). Transfection can be performed in all cases using Lipofectamine 2000 (Life Technologies Corporation, Carlsbad, Calif.) following the manufacturer's recommendations. […] Experiments with transfection efficiency that yielded less than 80% can be discarded. For siRNA, we used 6 μl of Lipofectamine 2000 per 50 pmol of siRNA per mL of incubation medium, and, for plasmids, we used 6 μl of Lipofectamine 2000 per 2 μg of plasmid per mL of incubation medium. Cells can be incubated for 5 hours at 37° C., 5% CO2 and 99% relative humidity. […] When siRNA/plasmid co-transfection is required, siRNA and plasmid-carrying transfection mixes can be prepared separately and added one after the other in the same well. Oxidative stress treatments can be performed using 600 (ARPE-19) or 1600 (hRPE) μM H2O2, along with 10 ng/mL TNFα, for the required time indicated in each experiment. The treatment we used employed the low serum (0.5% serum) without hFGF. Treatment to induce uncompensated oxidative stress (UOS) can be performed after 8 hours of low-serum medium incubation unless specifically noted. Wnt5a, Wnt3a or NPD1 can be added immediately before induction of UOS. In the secretion experiments, Pitstop 2 can be added to the medium 2 hours before harvesting.
# (§2) Immunostaining can be performed in 8-well slide chambers and the Hoechst staining in 24-well plates. […] Briefly, cells can be fixed using 4% paraformaldehyde in PBS 1× for 20 min at room temperature or overnight at 4° C. After three washes with PBS, cells can be permeabilized using 0.1% Triton™ X-100 for five minutes and blocked using 10% normal serum and 1% BSA for one hour. […] Hoechst staining can be performed using same protocol of fixation. In one embodiment, permeabilization is done using methanol for 20 min at room temperature. […] Dying cells can be identified by size (0 to 50 pixels), intensity threshold, and circularity. The ratio of hyperpyknotic cells over the total can be calculated for nine randomly chosen fields per sample obtained from three independent wells per experiment. Each experiment can be repeated at least three times to confirm the findings.
# ARPE-19 cells, were plated and grown in DMEM/F-12 containing 10% FBS and 1× penicillin/streptomycin at 37° C., 5% CO2, 99% relative humidity for 24 h. […] 15-LOX-1 deficient cells were maintained in the same medium as ARPE-19 with the addition of 500 μg/mL Geneticin (Life Technologies Corporation). Transfection was performed in all cases using Lipofectamine 2000 (Life Technologies Corporation) following the manufacturer's recommendations. […] Experiments with transfection efficiency that yielded less than 80% were discarded. For siRNA, we used 6 μl of Lipofectamine 2000 per 50 pmol of siRNA per mL of incubation medium, and, for plasmids, we used 6 μl of Lipofectamine 2000 per 2 μg of plasmid per mL of incubation medium. Cells were incubated for 5 hours at 37° C., 5% CO2 and 99% relative humidity. […] When siRNA/plasmid co-transfection was required, siRNA and plasmid-carrying transfection mixes were prepared separately and added one after the other in the same well. […] The treatment we used employed the low serum (0.5% serum) without hFGF. Treatment to induce uncompensated oxidative stress (UOS) was performed after 8 hours of low-serum medium incubation unless specifically noted. Wnt5a, Wnt3a or NPD1 was added immediately before induction of UOS.
# Wnt5a/FZD5 = assay: Immunocytochemistry of Wnt5a/FZD5 colocalization and vesicles in hpRPE cells; details: for number of Wnt5a/FZD5 colocalized vesicles per field: hpRPE, UOS 1600 μM H2O2, 2 hours, +/− 50 ng/ml Wnt5a, no Pitstop2
# Method: To ascertain localization and interaction between FZD5 and Wnt5a we incubated hpRPE undergoing UOS with Wnt5a+/−NPD1 or other lipid mediators.
# as §2
# In an embodiment involving early stages of apoptosis, the total number of cells per field is assessed and counted to ensure unbiased observations. […] Settings can be adjusted in the conditions that show higher intensity and can be used throughout the remaining samples. In an embodiment, Pearson's colocalization coefficient (PCC) is obtained using FV1200 analysis software for every field in each experiment, and the mean and SEM are depicted in FIGS. 7-11.
# Immunostaining was performed in 8-well slide chambers and the Hoechst staining in 24 well plates. […] Briefly, cells were fixed using 4% paraformaldehyde in PBS 1× for 20 min at room temperature or overnight at 4° C. After three washes with PBS, cells were permeabilized using 0.1% Triton™ X-100 for five minutes and blocked using 10% normal serum and 1% BSA for one hour. […] Hoechst staining was performed using same protocol of fixation, but permeabilization was done using methanol for 20 min at room temperature. […] Dying cells were identified by size (0 to 50 pixels), intensity threshold and circularity. The ratio of hyperpyknotic cells over the total was calculated for nine randomly chosen fields per sample obtained from three independent wells per experiment. Each experiment was repeated at least three times to confirm the findings. In the experiments involving early stages of apoptosis, we assessed the total number of cells per field and counted them to ensure unbiased observations. […] Pearson's colocalization coefficient (PCC) was obtained using FV1200 analysis software for every field in each experiment, and the mean and SEM are depicted in Figures S1-S5. […] IMARIS software analysis was performed building a colocalization channel using the Costes thresholding, and the colocalized elements were analyzed using the spots function using the settings different spots sites, background subtraction and local contrast. The output obtained consisted on a collection of sizes (one per element in each picture) or the mean of the intensity in each spot.
# NF-κB/p65 = NF-κB/p65 luciferase reporter assay in hpRPE cells; details: hpRPE under UOS in the presence of Wnt5a 50 ng/ml; NPD1 100 or 200 nM; Pitstop2 25 μM
# Method: We asked if Wnt5a activates inflammatory signaling to enhance apoptosis mediated by UOS by assessing COX-2 promoter activation (FIG. 10). […] To compare Wnt5a effects with other cytokines that enhance COX-2 expression, Interleukin-1β (IL-1β) activity was measured. […] To determine if Wnt5a activates NF-κB, hpRPE were transfected with a construct that encompassed three p65 high-affinity binding sites in tandem, driving the expression of the luciferase reporter gene (FIG. 1G). […] To assess whether or not FDZ5 and ROR2 were involved in NF-κB activation by Wnt5a, cells were co-transfected with siRNAs targeting the two receptors (FIG. 11).
# as §1
# Except TOP/FOP flash, the Luciferase activity was standardized using a construct expressing GFP constitutively under CMV virus promoter. To assess luciferase activity, cell lysates were obtained using Passive Lysis Buffer (Promega) and mixed with a luciferase assay reagent (Promega). Chemiluminescence produced by luciferase and fluorescence from GFP was detected using Appliscan 2.3. Data were analyzed using SkanIt 2.3 (Thermo Fisher Scientific).
# Wnt5a = assay: Western blot of secreted (sWnt5a) and cellular (cWnt5a) Wnt5a in RPE cells under UOS
# Method: To monitor transcription, translation, and secretion of Wnt5a, we performed western blot assays using cellular lysates and medium from hpRPE undergoing UOS+/−NPD1 at different time points. Medium was precipitated using Methanol/Chloroform to bring down all secreted Wnt5a.
# The pellet can be re-suspended and denatured in 100 μl of 2× Laemmli sample buffer (Bio-Rad Laboratories, Hercules, Calif.) at 95° C. for 5 min. MCAo brain tissue and cell samples can be homogenized using RIPA (Thermo Fisher Scientific, Waltham, Mass.) buffer supplemented with protease and phosphatase inhibitor cocktails (Millipore Sigma, Burlington, Mass.). In embodiments, the amount of 30 μg of total protein is loaded in NuPAGE® Novex® 4-12% Bis-Tris precast gels (Life Technologies Corporation, Carlsbad, Calif.) and run at constant 120V for about 1 hour and 20 min. Proteins can be transferred to μm Nitrocellulose membrane using Bio-Rad Trans-Blot® Turbo™ System (Bio-Rad Laboratories, Hercules, Calif.). ECL™ Plex Fluorescent Rainbow Markers (GE Healthcare, Chicago, Ill.) can be used as the ladder for protein's molecular weight. Membranes can be blocked using 5% non-fat dry milk (Bio-Rad Laboratories, Hercules, Calif.) in TBS with 1% Tween® 20 (TBST-10×) (Croda International, Snaith, United Kingdom) for 1 hour and incubated overnight with primary antibodies. Anti-mouse or anti-rabbit secondary antibodies conjugated with Cy3 or Cy5 can be used to visualize the protein of interest. Immunoblots can be documented using LAS 4000 imaging system (GE Healthcare Life Sciences, Marlborough, Mass.). A time course exposition can be produced in each case to prevent quantification of saturated images. In embodiments, densitometry data are obtained using ImageQuant™ TL software (GE Healthcare Life Sciences, Marlborough, Mass.).
# The pellet was re-suspended and denatured in 100 μl of 2× Laemmli sample buffer (Bio-Rad Laboratories) at 95° C. for 5 min. MCAo brain tissue and cell samples were homogenized using RIPA (Thermo Fisher Scientific) buffer supplemented with protease and phosphatase inhibitor cocktails (Sigma). The amount of 30 μg of total protein was loaded in NuPAGE® Novex® 4-12% Bis-Tris precast gels (Life Technologies Corporation) or Mini-PROTEAN TGX Stain free gels 4-15% and ran at constant 120V for 1 hour and 20 min or 250 V for 40 min respectively. Proteins were transferred to μm Nitrocellulose or LF-PVDF membrane using Bio-Rad Trans-Blot® Turbo™ System (Bio-Rad Laboratories). ECL™ Plex Fluorescent Rainbow Markers (GE Healthcare) were used as the ladder for protein's molecular weight. […] A time course exposition was produced in each case to prevent quantification of saturated images. […]
molecule,measurement,setting,value
"IL-1 β: cytokine that enhances COX-2 expression, used for comparison with Wnt5a",COX-2 promoter activation (luciferase),COX-2 promoter,growing staggered pattern of COX-2 promoter activation through at least 16 hours
"CCC=CCC(O)C=CC=CC=CC(O)CC=CCC=CCCC(=O)O (centres unmarked) [10R, 17R diHDHA]",UOS-dependent NFkB activation and apoptosis (FIG. 18B legend),ARPE-19 cells and hpRPE,counteracted these effects
same,number of Wnt5a/FZD5 colocalized vesicles per field,Wnt5a/FZD5,decreased the amount of vesicles per field
same,number of Wnt5a/FZD5 colocalized vesicles per field,"Wnt5a/FZD5; listed as NPD1 stereoisomer, of 10-R, 17R configuration",showed the same effect as NPD1
"CC/C=C\C[C@H](O)[C@H](O)/C=C/C=C/C=C\C=C\[C@@H](O)C/C=C\CCC(=O)O [RvD2, 7S,16R,17S-trihydroxy-DHA]",UOS-dependent NFkB activation and apoptosis (FIG. 18B legend),ARPE-19 cells and hpRPE,counteracted these effects
O=C1NC(=NS(=O)(=O)c2cccc3ccccc23)S/C1=C\c1ccc(Br)cc1 [Pitstop2],number of Wnt5a/FZD5 co-localized vesicles in the presence of Pitstop2,"Wnt5a/FZD5; 25 μM Pitstop2, control and UOS treated cells, rWnt5a added",prevented the increased in Wnt5a/FZD5 co-localized vesicles; also recorded: inhibition produced by Box5 was reverted
same,NF-κB/p65 activation (luciferase),NF-κB/p65,decreases the activation of p65/NF-κB; also recorded: interferes with the activation of NF-κB/p65; also recorded: decreases the activation of p65/NFkB; also recorded: interferes with the activation of NFkB/p65
same,cellular Wnt5a (cWnt5a) abundance,Wnt5a; cells undergoing UOS+/−NPD1 and Pitstop2,did not modify cWnt5a abundance
same,secreted Wnt5a (sWnt5a) in medium,"Wnt5a; hpRPE cells under UOS, Pitstop2 added 2 hours before harvesting",reverted the effect of NPD1 on sWnt5a; also recorded: increase in secreted Wnt5a; also recorded: increase in sWnt5a
CC/C=C\C/C=C\C[C@H](O)\C=C/C=C/C=C/[C@H](O)C/C=C\CCC(=O)O [Maresin-1],UOS-dependent NFkB activation and apoptosis (FIG. 18B legend),ARPE-19 cells and hpRPE,counteracted these effects
"CC/C=C\C[C@H](O)/C=C/C=C\C=C\C=C\[C@@H](O)[C@@H](O)C/C=C\CCC(=O)O [RvD1, 7S,8R,17S-trihydroxy-DHA]",UOS-dependent NFkB activation and apoptosis (FIG. 18B legend),ARPE-19 cells and hpRPE,counteracted these effects
